{"source": "patent US10508088B2", "about": "“Methods using HDAC11 inhibitors” (FORMA Therapeutics, Inc., priority 2016, dated 2019)", "key": {"[1]": {"target": "HDAC4 (Homo sapiens (Human), UniProt P56524)", "sequence (P56524 whole entry)": "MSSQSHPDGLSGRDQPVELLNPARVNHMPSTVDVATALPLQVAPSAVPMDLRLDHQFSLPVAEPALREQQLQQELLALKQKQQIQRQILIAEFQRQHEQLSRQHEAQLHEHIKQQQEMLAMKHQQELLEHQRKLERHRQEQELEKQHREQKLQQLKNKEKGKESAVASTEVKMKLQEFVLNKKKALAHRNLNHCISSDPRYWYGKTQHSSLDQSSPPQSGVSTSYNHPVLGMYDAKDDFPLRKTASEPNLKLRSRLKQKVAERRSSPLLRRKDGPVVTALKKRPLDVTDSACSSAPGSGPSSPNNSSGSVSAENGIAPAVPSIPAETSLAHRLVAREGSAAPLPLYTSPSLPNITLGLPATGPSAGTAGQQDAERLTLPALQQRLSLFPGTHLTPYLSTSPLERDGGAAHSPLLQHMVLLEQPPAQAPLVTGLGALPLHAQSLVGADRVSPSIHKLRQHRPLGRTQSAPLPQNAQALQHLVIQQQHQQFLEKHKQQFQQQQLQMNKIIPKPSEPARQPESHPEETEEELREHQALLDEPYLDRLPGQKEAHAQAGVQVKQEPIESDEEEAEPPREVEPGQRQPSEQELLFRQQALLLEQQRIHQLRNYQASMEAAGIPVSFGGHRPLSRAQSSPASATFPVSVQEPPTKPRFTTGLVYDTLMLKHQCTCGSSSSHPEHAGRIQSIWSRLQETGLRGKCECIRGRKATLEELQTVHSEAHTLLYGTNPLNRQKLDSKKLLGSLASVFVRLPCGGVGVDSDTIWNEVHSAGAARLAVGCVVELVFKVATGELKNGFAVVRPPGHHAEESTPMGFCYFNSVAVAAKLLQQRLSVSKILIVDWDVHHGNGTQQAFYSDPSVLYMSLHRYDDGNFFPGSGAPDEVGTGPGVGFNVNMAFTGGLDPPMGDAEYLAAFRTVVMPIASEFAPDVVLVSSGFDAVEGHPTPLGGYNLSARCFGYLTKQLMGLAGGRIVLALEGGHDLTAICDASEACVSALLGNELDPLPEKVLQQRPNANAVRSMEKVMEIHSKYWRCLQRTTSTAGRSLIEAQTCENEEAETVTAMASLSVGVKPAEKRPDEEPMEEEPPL", "test": "HDAC inhibition assay, electrophoretic mobility shift (Nanosyn)", "settings": "read-out: HDAC Biochemical IC50 HDAC4", "protocol": "(§1) This example describes in vitro inhibition properties of exemplary HDAC11 inhibitors for various HDACs. HDAC inhibition assays were performed using an electrophoretic mobility shift assay at Nanosyn, Inc. (Santa Clara, Calif.). Full length human recombinant HDAC proteins were expressed in the baculoviral system and purified by affinity chromatography. A human recombinant HDAC3 was co-expressed with nuclear receptor corepressor (Ncor2). The following peptide substrates were used: FAM-RHKK(Ac)-NH2 for HDAC3, HDAC6 and HDAC8; FITC-H3K27(Ac)-NH2 for HDAC1, HDAC2 and HDAC10; FAM-RHKK(tri-fluor-Ac)-NH2 for HDAC4, HDAC5, HDAC7, HDAC9 and HDAC11. Reactions consisting of compound, enzyme, and substrate were performed in reaction buffer (comprised of 100 mM HEPES, pH7.5, 25 mM KCl, 0.1% bovine serum albumin, 0.01% Triton X-100) at 25° C. and quenched by the addition of termination buffer (100 mM HEPES, pH7.5, 0.01% Triton X-100, 0.05% SDS). The fluorescence intensity of the electrophoretically separated de-acetylated product and substrate peptide were measured and analyzed using the LabChip® 3000 microfluidic electrophoresis instrument (Perkin Elmer/Caliper Life Sciences). The IC50 values of inhibitors were determined by fitting the %-inhibition curves with 4 parameter dose-response model using XLfit 4 software (IDBS)."}, "[2]": {"target": "HDAC5 (Homo sapiens (Human), UniProt Q9UQL6)", "test": "HDAC inhibition assay, electrophoretic mobility shift (Nanosyn)", "settings": "read-out: HDAC Biochemical IC50 HDAC5", "protocol": "as §1"}, "[3]": {"target": "HDAC9 (Homo sapiens (Human), UniProt Q9UKV0)", "test": "HDAC inhibition assay, electrophoretic mobility shift (Nanosyn)", "settings": "read-out: HDAC Biochemical IC50 HDAC9", "protocol": "as §1"}, "[4]": {"target": "HDAC6 (Homo sapiens (Human), UniProt Q9UBN7)", "test": "HDAC inhibition assay, electrophoretic mobility shift (Nanosyn)", "settings": "read-out: HDAC Biochemical IC50 HDAC6", "protocol": "as §1"}, "[5]": {"target": "HDAC3 co-expressed with nuclear receptor corepressor (Ncor2) (Homo sapiens (Human), UniProt O15379)", "sequence (O15379 whole entry)": "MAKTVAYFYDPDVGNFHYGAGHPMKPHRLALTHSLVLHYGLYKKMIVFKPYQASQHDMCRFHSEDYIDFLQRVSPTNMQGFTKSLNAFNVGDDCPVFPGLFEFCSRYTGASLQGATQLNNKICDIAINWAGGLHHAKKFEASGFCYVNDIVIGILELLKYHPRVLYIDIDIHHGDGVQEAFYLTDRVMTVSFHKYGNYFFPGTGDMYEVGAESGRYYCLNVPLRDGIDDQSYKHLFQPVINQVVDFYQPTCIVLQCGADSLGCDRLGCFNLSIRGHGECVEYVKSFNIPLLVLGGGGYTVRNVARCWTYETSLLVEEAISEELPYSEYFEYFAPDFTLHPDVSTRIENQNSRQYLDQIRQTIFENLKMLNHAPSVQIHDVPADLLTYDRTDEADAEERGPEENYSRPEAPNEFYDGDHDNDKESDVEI", "sequence (Q9Y618 395-489 partner)": "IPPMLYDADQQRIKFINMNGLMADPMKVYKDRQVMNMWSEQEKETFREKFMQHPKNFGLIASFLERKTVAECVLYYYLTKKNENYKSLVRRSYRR", "test": "HDAC inhibition assay, electrophoretic mobility shift (Nanosyn)", "settings": "read-out: HDAC Biochemical IC50 HDAC3", "protocol": "as §1"}, "[6]": {"target": "HDAC7 (Homo sapiens (Human), UniProt Q8WUI4)", "sequence (Q8WUI4 whole entry)": "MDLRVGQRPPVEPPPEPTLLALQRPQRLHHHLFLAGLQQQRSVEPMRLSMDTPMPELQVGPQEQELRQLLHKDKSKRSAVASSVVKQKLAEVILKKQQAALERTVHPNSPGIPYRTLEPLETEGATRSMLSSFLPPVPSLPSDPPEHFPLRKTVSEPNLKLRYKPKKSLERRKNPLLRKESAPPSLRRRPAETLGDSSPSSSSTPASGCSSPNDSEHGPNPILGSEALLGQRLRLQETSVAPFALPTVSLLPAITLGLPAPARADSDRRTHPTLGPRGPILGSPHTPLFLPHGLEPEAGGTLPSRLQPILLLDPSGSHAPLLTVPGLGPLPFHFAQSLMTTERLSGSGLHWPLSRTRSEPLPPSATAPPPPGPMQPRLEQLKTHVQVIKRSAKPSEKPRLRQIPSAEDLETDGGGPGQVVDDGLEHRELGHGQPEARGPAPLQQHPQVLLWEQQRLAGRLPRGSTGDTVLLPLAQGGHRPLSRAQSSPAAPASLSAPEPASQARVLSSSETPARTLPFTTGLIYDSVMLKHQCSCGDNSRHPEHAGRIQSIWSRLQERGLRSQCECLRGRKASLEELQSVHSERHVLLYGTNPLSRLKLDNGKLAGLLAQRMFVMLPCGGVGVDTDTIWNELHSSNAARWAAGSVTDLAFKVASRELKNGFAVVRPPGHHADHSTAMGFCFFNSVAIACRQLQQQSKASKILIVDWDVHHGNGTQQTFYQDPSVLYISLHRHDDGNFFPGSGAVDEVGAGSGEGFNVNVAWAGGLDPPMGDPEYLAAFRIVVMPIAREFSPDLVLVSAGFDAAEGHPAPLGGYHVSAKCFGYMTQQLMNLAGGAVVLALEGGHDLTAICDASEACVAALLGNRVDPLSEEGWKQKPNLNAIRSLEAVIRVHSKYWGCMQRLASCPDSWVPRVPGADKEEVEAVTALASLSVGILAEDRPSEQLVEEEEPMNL", "test": "HDAC inhibition assay, electrophoretic mobility shift (Nanosyn)", "settings": "read-out: HDAC Biochemical IC50 HDAC7", "protocol": "as §1"}, "[7]": {"target": "HDAC1 (Homo sapiens (Human), UniProt Q13547)", "sequence (Q13547 whole entry)": "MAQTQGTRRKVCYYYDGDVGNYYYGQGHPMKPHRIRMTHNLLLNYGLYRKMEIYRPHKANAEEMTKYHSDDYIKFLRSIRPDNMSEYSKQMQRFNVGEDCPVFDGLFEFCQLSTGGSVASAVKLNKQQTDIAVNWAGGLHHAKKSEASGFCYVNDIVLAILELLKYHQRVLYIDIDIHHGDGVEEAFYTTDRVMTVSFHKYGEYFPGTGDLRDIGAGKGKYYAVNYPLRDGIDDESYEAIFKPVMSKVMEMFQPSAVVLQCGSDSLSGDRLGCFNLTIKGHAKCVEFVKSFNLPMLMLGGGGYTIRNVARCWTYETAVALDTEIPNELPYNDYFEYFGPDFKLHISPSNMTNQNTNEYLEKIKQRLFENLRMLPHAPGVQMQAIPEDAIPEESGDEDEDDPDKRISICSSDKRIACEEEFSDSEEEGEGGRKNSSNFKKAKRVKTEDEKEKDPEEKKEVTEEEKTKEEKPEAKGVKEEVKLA", "test": "HDAC inhibition assay, electrophoretic mobility shift (Nanosyn)", "settings": "read-out: HDAC Biochemical IC50 HDAC1", "protocol": "as §1"}, "[8]": {"target": "HDAC8 (Homo sapiens (Human), UniProt Q9BY41)", "sequence (Q9BY41 whole entry)": "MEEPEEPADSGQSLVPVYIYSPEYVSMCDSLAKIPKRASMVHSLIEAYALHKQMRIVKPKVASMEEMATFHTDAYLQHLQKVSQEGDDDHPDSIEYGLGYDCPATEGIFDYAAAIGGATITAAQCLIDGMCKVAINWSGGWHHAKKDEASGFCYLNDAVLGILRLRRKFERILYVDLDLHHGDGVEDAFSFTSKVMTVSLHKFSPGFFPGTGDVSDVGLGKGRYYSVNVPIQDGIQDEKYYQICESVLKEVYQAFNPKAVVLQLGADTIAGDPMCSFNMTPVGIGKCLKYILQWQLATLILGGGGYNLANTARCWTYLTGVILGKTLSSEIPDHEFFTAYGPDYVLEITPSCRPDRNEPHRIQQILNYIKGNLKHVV", "test": "HDAC inhibition assay, electrophoretic mobility shift (Nanosyn)", "settings": "read-out: HDAC Biochemical IC50 HDAC8", "protocol": "as §1"}, "[9]": {"target": "HDAC10 (Homo sapiens (Human), UniProt Q969S8)", "sequence (Q969S8 whole entry)": "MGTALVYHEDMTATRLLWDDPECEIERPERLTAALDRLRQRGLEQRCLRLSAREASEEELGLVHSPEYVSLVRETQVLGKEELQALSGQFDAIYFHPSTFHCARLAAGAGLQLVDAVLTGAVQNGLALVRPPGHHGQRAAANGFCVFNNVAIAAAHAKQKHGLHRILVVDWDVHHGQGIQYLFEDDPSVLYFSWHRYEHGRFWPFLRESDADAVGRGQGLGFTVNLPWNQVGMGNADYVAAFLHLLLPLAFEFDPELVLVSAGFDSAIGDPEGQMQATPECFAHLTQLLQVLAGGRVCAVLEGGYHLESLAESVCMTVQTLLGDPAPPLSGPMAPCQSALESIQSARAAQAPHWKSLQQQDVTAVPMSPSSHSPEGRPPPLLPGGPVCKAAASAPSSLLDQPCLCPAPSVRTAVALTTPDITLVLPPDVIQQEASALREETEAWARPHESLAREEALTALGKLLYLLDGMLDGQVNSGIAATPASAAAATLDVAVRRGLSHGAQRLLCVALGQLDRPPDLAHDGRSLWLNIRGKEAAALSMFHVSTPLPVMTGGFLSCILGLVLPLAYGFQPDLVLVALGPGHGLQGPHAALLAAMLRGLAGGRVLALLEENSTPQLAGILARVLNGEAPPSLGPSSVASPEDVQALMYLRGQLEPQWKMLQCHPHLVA", "test": "HDAC inhibition assay, electrophoretic mobility shift (Nanosyn)", "settings": "read-out: HDAC Biochemical IC50 HDAC10", "protocol": "as §1"}, "[10]": {"target": "HDAC2 (Homo sapiens (Human), UniProt Q92769)", "sequence (Q92769 whole entry)": "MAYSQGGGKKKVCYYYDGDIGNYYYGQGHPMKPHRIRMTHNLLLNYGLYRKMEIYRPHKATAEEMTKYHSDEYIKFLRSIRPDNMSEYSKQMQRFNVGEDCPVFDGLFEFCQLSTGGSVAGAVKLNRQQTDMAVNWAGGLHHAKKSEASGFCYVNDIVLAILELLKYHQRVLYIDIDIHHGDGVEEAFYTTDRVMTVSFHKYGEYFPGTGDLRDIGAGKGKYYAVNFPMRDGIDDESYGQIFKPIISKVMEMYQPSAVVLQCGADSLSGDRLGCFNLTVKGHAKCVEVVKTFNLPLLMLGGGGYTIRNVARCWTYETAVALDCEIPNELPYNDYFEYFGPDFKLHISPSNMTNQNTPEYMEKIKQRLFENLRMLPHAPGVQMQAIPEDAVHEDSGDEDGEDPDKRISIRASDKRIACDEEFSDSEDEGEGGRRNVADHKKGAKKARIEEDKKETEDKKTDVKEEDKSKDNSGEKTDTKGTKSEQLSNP", "test": "HDAC inhibition assay, electrophoretic mobility shift (Nanosyn)", "settings": "read-out: HDAC Biochemical IC50 HDAC2", "protocol": "as §1"}, "[11]": {"tested_on": "NCI-H2170 cells", "test": "Cell proliferation assay with combination treatment (MTT)", "format": "cell-based", "settings": "H2170, combination with GDC-0449 (Vismodegib) or BMS-833923, 96 hours", "protocol": "(§2) Selective HDAC11 inhibitors may be useful in combination with other targeted agents, including Jak2 inhibitors and Smoothened inhibitors. The effect of combination with the Smoothened inhibitors GDC-0449 (Vismodegib) and BMS-833923 was tested in lung cancer cell lines. A549 and NCI-H2170 cells were obtained from the ATCC. H2170 is a squamous carcinoma cell line. Cell viability was assessed using MTT reagent (Thiazolyl Blue Tetrazolium Bromide) (Sigma-Aldrich). The cells were grown in 96-well plates at a density of 3000-5000 cells/well in triplicates. The HDAC11 inhibitors were added to the adherent cells at different concentrations and treatment was carried out for 96 hours. After treatments, the cells were incubated with the 1 mg/mL MTT reagent at 37° C. for 1 hour. The reaction was terminated with DMSO that solubilizes the formazan product formed. Absorbance at 590 nm was recorded in a plate reader."}, "[12]": {"tested_on": "A549 cells", "test": "Cell proliferation assay with combination treatment (MTT)", "format": "cell-based", "settings": "A549, combination with GDC-0449 (Vismodegib) or BMS-833923, 96 hours", "protocol": "as §2"}, "[13]": {"tested_on": "Sox2, Gli1, Yap1 mRNA in A549 cells", "test": "QRT-PCR assay for stem cell transcription factors", "format": "cell-based", "settings": "A549, 72 hours", "protocol": "(§3) Given the effects of HDAC11 inhibition on stem-like side population cells, the effects on the expression of stem cell transcription factors was determined using QRT-PCR. A549 or H1650 cells were plated in 60 mm cell culture dishes (120,000 cells). The next day, HDAC11 inhibitors were added at various concentrations and incubated for 72 hours. For the siRNA experiments, A549 cells were plated in 60 mm cell culture dishes (120,000 cells per dish). The siRNAs (Santa Cruz Biotechnologies sc-106896 or ThermoFisher Scientific Cat#4392420) were transfected at a concentration of 100 and 150 pmoles into cells using Oligofectamine reagent (Invitrogen) as per manufacturer's protocol. A non-targeting siRNA (Ambion AM4635) was used as a control for all the transfection experiments. The cells were harvested after 72 hours post transfection. At the end of the treatments, cells were scraped, lysed and total RNA was isolated by RNeasy miniprep kit from Qiagen following the manufacturer's protocol (RNeasy mini kit Cat No. 74104). 1 μg of RNA was converted into cDNA using iScript cDNA synthesis kit (BioRad) in a 20 μl total reaction volume. Levels of mRNA were further analyzed using quantitative real time-PCR (qRT-PCR) that was performed in CFX96 Real time system using BioRad iQ SYBR Green supermix. The reaction was set with 5 μl of SYBR Green, 1 μl of 1 μM Forward primer, 1 μl of 1 μM Reverse primer, 0.5 μl of cDNA and 4.5 μl of water in a total 12 μl reaction. Data was normalized using GAPDH as an internal control and fold change was calculated by 2^−Delta-DeltaCt method. First the Delta-Ct was calculated (Delta-Ct=Ct Gene−Ct GAPDH). Next Delta-Delta-Ct was calculated (Delta-Delta-Ct=Delta-Ct treatment−Delta-Ct control). Finally fold change was calculated by 2^−Delta-DeltaCt."}, "[14]": {"tested_on": "Sox2, Gli1, Yap1 mRNA in H1650 cells", "test": "QRT-PCR assay for stem cell transcription factors", "format": "cell-based", "settings": "H1650, 72 hours", "protocol": "as §3"}}}
{"compound": "O=C(NO)c1cccc(Nc2nc3cc(Cl)c(Cl)cc3o2)c1", "note": "[HDTK010, 3-((5,6-dichlorobenzo[d]oxazol-2-yl)amino)-N-hydroxybenzamide]", "values": [{"measurement": "IC50", "setting": "[1]", "result": "> 10", "unit": "µM"}, {"measurement": "IC50", "setting": "[2]", "result": "> 10", "unit": "µM"}, {"measurement": "IC50", "setting": "[3]", "result": "> 10", "unit": "µM"}, {"measurement": "IC50", "setting": "[4]", "result": "0.5 to 1", "unit": "µM"}, {"measurement": "IC50", "setting": "[5]", "result": "> 10", "unit": "µM"}, {"measurement": "IC50", "setting": "[6]", "result": "5 to 10", "unit": "µM"}, {"measurement": "IC50", "setting": "[7]", "result": "> 10", "unit": "µM"}, {"measurement": "IC50", "setting": "[8]", "result": "0.5 to 1", "unit": "µM"}, {"measurement": "IC50", "setting": "[9]", "result": "> 10", "unit": "µM"}, {"measurement": "IC50", "setting": "[10]", "result": "> 10", "unit": "µM"}, {"measurement": "cell viability, combination with the Smoothened inhibitors", "setting": "[11]", "result": "decreased cell viability"}, {"measurement": "cell viability, combination with the Smoothened inhibitors", "setting": "[12]", "result": "decreased cell viability"}, {"measurement": "expression of Gli1 and Yap1", "setting": "[13]", "result": "decreased expression"}, {"measurement": "expression of Sox2", "setting": "[13]", "result": "decreased expression"}, {"measurement": "expression of Gli1 and Yap1", "setting": "[14]", "result": "decreased expression"}, {"measurement": "expression of Sox2", "setting": "[14]", "result": "decreased expression"}]}
{"compound": "O=C(NO)c1cccc2c1C[C@]1(CCN(Cc3ccc(Cl)c(C(F)(F)F)c3)C1=O)C2", "note": "[HDTK054, (S)-1′-(4-chloro-3-(trifluoromethyl)benzyl)-N-hydroxy-2′-oxo-1,3-dihydrospiro[indene-2,3′-pyrrolidine]-4-carboxamide]", "values": [{"measurement": "IC50", "setting": "[1]", "result": "> 10", "unit": "µM"}, {"measurement": "IC50", "setting": "[2]", "result": "> 10", "unit": "µM"}, {"measurement": "IC50", "setting": "[3]", "result": "> 10", "unit": "µM"}, {"measurement": "IC50", "setting": "[4]", "result": "> 10", "unit": "µM"}, {"measurement": "IC50", "setting": "[5]", "result": "> 10", "unit": "µM"}, {"measurement": "IC50", "setting": "[6]", "result": "> 10", "unit": "µM"}, {"measurement": "IC50", "setting": "[7]", "result": "> 10", "unit": "µM"}, {"measurement": "IC50", "setting": "[8]", "result": "5 to 10", "unit": "µM"}, {"measurement": "IC50", "setting": "[9]", "result": "> 10", "unit": "µM"}, {"measurement": "IC50", "setting": "[10]", "result": "> 10", "unit": "µM"}, {"measurement": "cell viability, combination with the Smoothened inhibitors", "setting": "[11]", "result": "decreased cell viability"}, {"measurement": "cell viability, combination with the Smoothened inhibitors", "setting": "[12]", "result": "decreased cell viability"}, {"measurement": "expression of Gli1 and Yap1", "setting": "[13]", "result": "decreased expression"}, {"measurement": "expression of Sox2", "setting": "[13]", "result": "decreased expression"}, {"measurement": "expression of Gli1 and Yap1", "setting": "[14]", "result": "decreased expression"}, {"measurement": "expression of Sox2", "setting": "[14]", "result": "decreased expression"}]}
